What was measured:
E. coli 25922 = type: cell-based, Escherichia coli
Description: (§1) The antimicrobial activities of the peptides were measured using a method adapted from the National Committee for Clinical Laboratory Standards (NCCLS) with some modifications ([Chou et al., 2016]). The specific procedure for these assays has been previously described. In brief, the bacterial cells were grown to a mid-logarithmic phase and diluted in MHB to an ultimate concentration of 0.5–1 × 10^6 CFU mL^–1. Subsequently, the peptides were consecutively diluted in a 0.2% BSA solution and then added to a bacterial solution in a 96-well plate at identical volumes. After incubation for 24 h at 37°C, the MICs were determined to be the lowest peptide concentration that inhibited 95% of the bacterial growth by monitoring the absorbance at 492 nm using a microplate reader. Subsequently, 50 μL of each incubation mixture was further transferred to agar plates and incubated overnight. The minimum bactericidal concentrations (MBCs) were determined as the lowest peptide concentration that killed greater than 99.9% of the bacterial cells. Every assay was reproduced more than 3 times.

E. coli O78 = type: cell-based, Escherichia coli
Description: as §1

E. coli UB1005 = type: cell-based, Escherichia coli
Description: as §1

S. typhimurium 14028 = type: cell-based, Salmonella typhimurium
Description: as §1

S. typhimurium 7731 = type: cell-based, Salmonella typhimurium
Description: as §1

S. pullorum 7913 = type: cell-based, Salmonella pullorum
Description: as §1

P. aeruginosa 27853 = type: cell-based, Pseudomonas aeruginosa
Description: as §1

E. coli K88 = tested on: E. coli K88
Description: as §1, with “The minimum bactericidal concentrations (MBCs) were determined as the lowest peptide concentration that killed greater than 99.9% of the bacterial cells.” left out

E. coli K99 = tested on: E. coli K99
Description: as §1, with “The minimum bactericidal concentrations (MBCs) were determined as the lowest peptide concentration that killed greater than 99.9% of the bacterial cells.” left out

Gram-negative bacteria [1] = conditions: geometric mean of MICs, 9 Gram-negative strains (Table 2)
Description: (§2) The antimicrobial activity of AMPs is the most decisive index for evaluating the clinical application of antimicrobial drugs.
as §1, with “The minimum bactericidal concentrations (MBCs) were determined as the lowest peptide concentration that killed greater than 99.9% of the bacterial cells.” left out

Gram-positive bacteria [2] = conditions: geometric mean of MICs, 7 Gram-positive strains (Table 2)
Description: as §2
as §1, with “The minimum bactericidal concentrations (MBCs) were determined as the lowest peptide concentration that killed greater than 99.9% of the bacterial cells.” left out

S. aureus 25923 = type: cell-based, Staphylococcus aureus
Description: as §1

S. aureus 29213 [3] = type: cell-based, Staphylococcus aureus
Description: as §1

S. epidermidis 12228 = type: cell-based, Staphylococcus epidermidis
Description: as §1

MRSA 43300 = type: cell-based, methicillin-resistant S. aureus
Description: as §1

B. subtilis 63501 = type: cell-based, Bacillus subtilis
Description: as §1

E. faecalis 29212 = type: cell-based, Enterococcus faecalis
Description: as §1

[4] = tested on: Listeria monocytogenes CGMCC 1.1075; type: cell-based
Description: as §1

E. coli ATCC 25922 = test: Salt sensitivity assay (MIC); type: cell-based, Escherichia coli
Description: as §1
(§3) The salt sensitivities of the peptides were determined. E. coli ATCC 25922 and S. aureus ATCC 29213 were incubated in the presence of various ultimate concentrations of physiological salts (150 mM NaCl, 4.5 mM KCl, 6 μM NH4Cl, 8 μM ZnCl2, 1 mM MgCl2, 2mM CaCl2, and 4 μM FeCl3) according to our previous protocol ([Yang et al., 2019]). These tests were performed under the MICs, and three independent assays were performed.

S. aureus 29213 [5] = test: Salt sensitivity assay (MIC); type: cell-based, Staphylococcus aureus
Description: as §1, §3

Gram-negative bacteria [6] = conditions: geometric mean of MBCs, 9 Gram-negative strains (Table 2)
Gram-positive bacteria [7] = conditions: geometric mean of MBCs, 7 Gram-positive strains (Table 2)
[8] = MHB, 24 h 37°C, 95% growth inhibition
[9] = value in brackets, >99.9% of cells killed
[10] = no added salt, three independent assays

## Polymyxin B [reference compound]
E. coli 25922; MHB, 0.5–1 × 10^6 CFU/mL, 24 h 37°C, lowest concentration inhibiting 95% of growth (A492), more than 3 repeats
  MIC: 4 µM
E. coli 25922; value in brackets, agar plating, lowest concentration killing >99.9% of cells
  MBC: 8 µM
E. coli O78; [8]
  MIC: 2 µM
E. coli O78; [9]
  MBC: 4 µM
E. coli UB1005; [8]
  MIC: 2 µM
E. coli UB1005; [9]
  MBC: 4 µM
S. typhimurium 14028; [8]
  MIC: 4 µM
S. typhimurium 14028; [9]
  MBC: 8 µM
S. typhimurium 7731; [8]
  MIC: 2 µM
S. typhimurium 7731; [9]
  MBC: 4 µM
S. pullorum 7913; [8]
  MIC: 4 µM
S. pullorum 7913; [9]
  MBC: 8 µM
P. aeruginosa 27853; [8]
  MIC: 8 µM
P. aeruginosa 27853; [9]
  MBC: 16 µM
E. coli K88; [8]
  MIC: 2 µM
E. coli K88; [9]
  MBC: 4 µM
E. coli K99; [8]
  MIC: 2 µM
E. coli K99; [9]
  MBC: 4 µM
Gram-negative bacteria [1]
  GM MIC: 2.94 µM
Gram-positive bacteria [2]
  GM MIC: 4.42 µM
S. aureus 25923; [8]
  MIC: 2 µM
S. aureus 25923; [9]
  MBC: 4 µM
S. aureus 29213 [3]; [8]
  MIC: 4 µM
S. aureus 29213 [3]; [9]
  MBC: 8 µM
S. epidermidis 12228; [8]
  MIC: 2 µM
S. epidermidis 12228; [9]
  MBC: 4 µM
MRSA 43300; [8]
  MIC: 2 µM
MRSA 43300; [9]
  MBC: 4 µM
B. subtilis 63501; [8]
  MIC: 1 µM
B. subtilis 63501; [9]
  MBC: 2 µM
E. faecalis 29212; [8]
  MIC: 32 µM
E. faecalis 29212; [9]
  MBC: > 64 µM
[4]; [8]
  MIC: 32 µM
[4]; [9]
  MBC: > 64 µM
E. coli ATCC 25922; 4 μM FeCl3
  MIC, FeCl3: 4 µM
E. coli ATCC 25922; 6 μM NH4Cl
  MIC, NH4Cl: 4 µM
E. coli ATCC 25922; 8 μM ZnCl2
  MIC, ZnCl2: 4 µM
E. coli ATCC 25922; 1 mM MgCl2
  MIC, MgCl2: 4 µM
E. coli ATCC 25922; 2 mM CaCl2
  MIC, CaCl2: 8 µM
E. coli ATCC 25922; 4.5 mM KCl
  MIC, KCl: 8 µM
E. coli ATCC 25922; 150 mM NaCl
  MIC, NaCl: 8 µM
E. coli ATCC 25922; [10]
  MIC, Control: 4 µM
S. aureus 29213 [5]; 4 μM FeCl3
  MIC, FeCl3: 16 µM
S. aureus 29213 [5]; 6 μM NH4Cl
  MIC, NH4Cl: 16 µM
S. aureus 29213 [5]; 8 μM ZnCl2
  MIC, ZnCl2: 16 µM
S. aureus 29213 [5]; 1 mM MgCl2
  MIC, MgCl2: 16 µM
S. aureus 29213 [5]; 2 mM CaCl2
  MIC, CaCl2: 64 µM
S. aureus 29213 [5]; 4.5 mM KCl
  MIC, KCl: 16 µM
S. aureus 29213 [5]; 150 mM NaCl
  MIC, NaCl: 32 µM
S. aureus 29213 [5]; [10]
  MIC, Control: 16 µM
Gram-negative bacteria [6]
  GM MBC: 5.88 µM
Gram-positive bacteria [7]
  GM MBC: 10.77 µM
